Results: ChEMBL document CHEMBL1201862, “PubChem BioAssay data set” (2004)
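Compound exposure: 48 hours, 5 concentrations, 96-well plates. At the GI50, growth is halved.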 The source made the active and inactive calls. Rule as the data show it: active = GI50 up to about 1.1 µM and inactive = higher.

Legend:
Test in all cases: NCI anticancer screen, dose series, 48 h
LXFL 529 = test system: LXFL 529
DMS-273 = test system: DMS-273
HOP-18 = test system: HOP-18
KM-20L2 = test system: KM-20L2
SNB-78 = test system: SNB-78
M19-MEL = test system: M19-MEL
DLD-1 = test system: DLD-1
XF498 = test system: XF498
RXF 631 = test system: RXF 631

Row | Compound | GI50 (LXFL 529) | GI50 (DMS-273) | GI50 (HOP-18) | GI50 (KM-20L2) | GI50 (SNB-78) | GI50 (M19-MEL) | GI50 (DLD-1) | GI50 (XF498) | GI50 (RXF 631)
1 | CSCSCC(CO)NC(=O)/C=C/c1c(C)nc(O)nc1O (stereo unspecified) | > 100 µM (inactive) | > 100 µM (inactive) | > 100 µM (inactive) | 46.8 µM (inactive) | > 100 µM (inactive) | 84.3 µM (inactive) | > 100 µM (inactive) |  | 
2 | O=C1C(CO)=C(CO)C(=O)c2c(O)ccc(O)c21 | 0.177 µM (active) | 0.369 µM (active) |  | 0.498 µM (active) | 1.7 µM (inactive) | 0.0719 µM (active) | 0.0653 µM (active) | 0.247 µM (active) | 1.26 µM (inactive)
3 | Cc1ccc(C)c(N2C(=O)C(=O)C(c3nc4ccccc4o3)/C(=N/N)C2=O)c1 (stereo unspecified) | > 100 µM (inactive) | > 100 µM (inactive) | > 100 µM (inactive) | > 100 µM (inactive) | > 100 µM (inactive) | > 100 µM (inactive) | > 100 µM (inactive) | 47.6 µM (inactive) | 
4 | COc1cc(C(=O)NC2CCc3cc(OC)c(OC)c(OC)c3-c3ccc(OC)c(=O)cc32)cc(OC)c1OC (stereo unspecified) | 0.0272 µM (active) | 0.0316 µM (active) | > 29.4 µM (inactive) | 0.0817 µM (active) | 0.0232 µM (active) | 0.0577 µM (active) | 0.265 µM (active) | 0.15 µM (active) | 
5 | Cc1c(C(=O)NCCO)[n+]([O-])c2cc(Cl)ccc2[n+]1[O-] | > 100 µM (inactive) | > 100 µM (inactive) | > 100 µM (inactive) | > 100 µM (inactive) | > 100 µM (inactive) | > 100 µM (inactive) | > 100 µM (inactive) |  | 
6 | COC(=O)C(CCCC1(c2ccccc2)OCCO1)C(C)=O (stereo unspecified) | > 100 µM (inactive) | > 100 µM (inactive) | > 100 µM (inactive) | > 100 µM (inactive) | > 100 µM (inactive) | > 100 µM (inactive) | > 100 µM (inactive) | > 100 µM (inactive) | > 100 µM (inactive)
7 | COc1ccc(C(=O)C(c2ccc(OC)cc2)C2(O)C(=O)Nc3c(Cl)cc(Cl)cc32)cc1 (stereo unspecified) | 15 µM (inactive) | 16.3 µM (inactive) | 20.1 µM (inactive) | 21.1 µM (inactive) | 18.3 µM (inactive) |  | 19.2 µM (inactive) | 22.4 µM (inactive) | 
8 | CC1NOC(=O)C1/N=N/c1cccc(Cl)c1 (stereo unspecified) | 27.9 µM (inactive) | 48.1 µM (inactive) | 26.1 µM (inactive) | 35.6 µM (inactive) | 36.6 µM (inactive) | 30.3 µM (inactive) | 34.6 µM (inactive) | 22.3 µM (inactive) | 
9 | O=C(c1ccc(Cl)cc1)c1ccc(OCC(=O)N2CCN(c3ccccc3)CC2)cc1 | 52.7 µM (inactive) |  | > 100 µM (inactive) | > 100 µM (inactive) | 56.4 µM (inactive) | > 100 µM (inactive) | > 100 µM (inactive) | > 100 µM (inactive) | 
10 | NS(=O)(=O)c1cc2c(cc1Cl)NC(C(=O)c1cc(=O)c3ccc(O)cc3o1)=NS2(=O)=O |  | > 100 µM (inactive) | > 100 µM (inactive) | > 100 µM (inactive) | > 100 µM (inactive) | > 100 µM (inactive) | > 100 µM (inactive) | > 100 µM (inactive) | 
11 | CC1=NN=C(NCCN(C)C)C/C1=C/c1ccccc1Cl | > 100 µM (inactive) | > 100 µM (inactive) | 61.7 µM (inactive) | 58.3 µM (inactive) | > 100 µM (inactive) | > 100 µM (inactive) | > 100 µM (inactive) | 77.3 µM (inactive) | 67.5 µM (inactive)
12 | CCOC(=O)c1ncn2c1[nH]c(=O)c1ccccc12 | > 100 µM (inactive) | > 100 µM (inactive) |  | > 100 µM (inactive) | > 100 µM (inactive) | > 100 µM (inactive) |  | > 100 µM (inactive) | 
13 | OC(c1ccccn1)C1CNc2ccccc21 (stereo unspecified) | > 100 µM (inactive) | > 100 µM (inactive) |  | > 100 µM (inactive) | > 100 µM (inactive) | > 100 µM (inactive) | > 100 µM (inactive) | > 100 µM (inactive) | 
14 | CC(Oc1cc2oc(=O)cc(-c3ccccc3)c2cc1Cl)C(=O)O (stereo unspecified) | > 100 µM (inactive) |  | > 100 µM (inactive) | > 100 µM (inactive) | > 100 µM (inactive) | > 100 µM (inactive) | > 100 µM (inactive) | 33.5 µM (inactive) | > 100 µM (inactive)
